Values quoted from earlier work as cited in patent publication US20260283953A1, “FORMULATIONS OF PHOSPHOLIPID CARRIER COMPLEXES” (priority 2024, published 2026).
Like-named read-outs stand apart in the source and are kept apart here.

Experiments:
[1] = in vivo
[2] = natural testosterone
[3] = for testosterone levels: oral 60 mg dose

Q: Which solubility in water does the source give for `O=C(/C=C/C=C/c1ccc2c(c1)OCO2)N1CCCCC1` [Piperine, (2E,4E)-5-(2H-1,3-Benzodioxol-5-yl)-1-(piperidin-1-yl)penta-2,4-dien-1-one] here?
A: dissolves poorly in water

Q: With `COc1cc(/C=C/C(=O)CC(=O)/C=C/c2ccc(O)c(OC)c2)ccc1O` [curcumin] as the compound, how does the bioavailability [1] read?
A: low bioavailability

Q: What does the source list for `C[C@]12CC[C@H]3[C@@H](CCC4=CC(=O)CC[C@@]43C)[C@@H]1CC[C@@H]2O` [testosterone, 17β-Hydroxyandrost-4-en-3-one]?
A: half-life [2]: under 1 hour; absorption and metabolism with oral delivery ([3]; first pass through the intestines and liver): well-absorbed but extensively metabolized; inactivation after oral delivery ([3]; men, doses of less than 200 mg): rapidly and completely inactivated; testosterone levels ([3]; men): no effect; testosterone levels ([3]; men with liver cirrhosis): High levels; testosterone levels ([3]; prepubertal boys and women): measurably increase; circulating testosterone levels ([3]; oral, large doses such as 200 mg): significant increases; oral bioavailability ([3]; young women, single 25 mg dose): 3.6±2.5%
